What was measured:
[1] = molar enthalpy of vaporization or sublimation; conditions: 381.12 K; Crystal; Static calorimetry
[2] = molar heat capacity at constant pressure; conditions: 101.33 kPa, Crystal, Small sample (50 mg) DSC
[3] = Crystal
[4] = Molar enthalpy of transition or fusion; conditions: Crystal; DSC

CCC(=O)c1ccc(O)cc1 [1-(4-hydroxyphenyl)-1-propanone]
Conditions | Molar enthalpy of transition or fusion [kcal/mol] | molar enthalpy [kcal/mol]
[1] | – | 26.87
[4] | 7.56 | –

Conditions | Normal melting temperature [°C] | molar heat capacity at constant pressure [J/K/mol]
[2], 288.66 K | – | 188.2
[2], 289.98 K | – | 188.2
[2], 291.28 K | – | 189.2
[2], 292.55 K | – | 189.9
[2], 293.82 K | – | 190.1
[2], 295.08 K | – | 191.4
[2], 296.34 K | – | 192.1
[2], 297.6 K | – | 192.7
[2], 298.85 K | – | 192.9
[2], 300.11 K | – | 193.6
[2], 301.36 K | – | 194.5
[2], 302.61 K | – | 195.3
[2], 303.87 K | – | 196.9
[2], 305.13 K | – | 197.5
[2], 306.38 K | – | 198.3
[2], 307.64 K | – | 198.5
[2], 308.89 K | – | 199.3
[2], 310.14 K | – | 199.8
[2], 311.39 K | – | 201
[2], 312.64 K | – | 201.7
[2], 313.9 K | – | 202.7
[2], 315.15 K | – | 203.5
[2], 316.4 K | – | 203.9
[2], 317.65 K | – | 204.9
[2], 318.9 K | – | 204.9
[2], 320.15 K | – | 206.1
[2], 321.41 K | – | 206.9
[2], 322.66 K | – | 207.6
[2], 323.91 K | – | 208.3
[2], 325.16 K | – | 209.1
[2], 326.41 K | – | 209.8
[2], 327.66 K | – | 210.5
[2], 328.91 K | – | 211.5
[2], 330.16 K | – | 212
[2], 331.41 K | – | 212.6
[2], 332.66 K | – | 213.6
[2], 333.91 K | – | 214.1
[2], 335.16 K | – | 215
[2], 336.41 K | – | 216.1
[2], 337.66 K | – | 216.6
[2], 338.91 K | – | 217.2
[2], 340.16 K | – | 217.3
[2], 341.41 K | – | 218.3
[2], 342.66 K | – | 219.2
[2], 343.91 K | – | 220.2
[2], 345.16 K | – | 220.7
[2], 346.41 K | – | 222
[2], 347.66 K | – | 222.2
[2], 348.91 K | – | 223.1
[2], 350.15 K | – | 223.8
[2], 351.4 K | – | 225
[2], 352.65 K | – | 225.9
[2], 353.9 K | – | 226.5
[2], 355.15 K | – | 226.9
[2], 356.4 K | – | 227.5
[2], 357.65 K | – | 228.2
[2], 358.9 K | – | 228.9
[2], 360.15 K | – | 229.6
[2], 361.4 K | – | 230.9
[2], 362.65 K | – | 231.4
[2], 363.9 K | – | 232.2
[2], 365.15 K | – | 232.7
[2], 366.39 K | – | 233.5
[2], 367.65 K | – | 235.1
[2], 368.9 K | – | 235.7
[2], 370.15 K | – | 236.6
[2], 371.4 K | – | 237.2
[2], 372.65 K | – | 237.9
[2], 373.9 K | – | 238.7
[2], 375.15 K | – | 239.3
[2], 376.4 K | – | 240.8
[2], 377.64 K | – | 241.3
[2], 378.89 K | – | 242.4
[2], 380.14 K | – | 243.1
[2], 381.39 K | – | 243.7
[2], 382.64 K | – | 244.3
[2], 383.89 K | – | 245.9
[3], DTA | 148.5 | –

Conditions | mass density [kg/m3]
[3], 298 K, 101.33 kPa, X-ray diffraction | 1273.1

— the NIST ThermoML archive (doi:10.1016/j.jct.2016.09.026)
